Key:
[1] = tested on: HCV genotype 1a (H77 strain) replicon in HUH-7 cells; assay: HCV replicon luciferase reporter assay, genotype 1a; type: cell-based; details: Hepatitis C virus, Huh-7, 72 h, HCV genotype 1a replicon luciferase assay, 3 days incubation, range class, read-out: LE_1a (EC50, range)
Method in brief: (§1)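 Replicon inhibition for both genotypes was measured as Renilla luciferase signal (EnduRen, 7.5 μM final, 2 h) after 3-day, 37° C exposure of replicon-bearing HUH-7 cells in 4% FCS DMEM, 0.5% DMSO. The 1b construct carries S1179I; the 1a H77 construct carries P1496L and S2204I. Twenty-point, 3-fold dilutions were fitted four-parametrically for EC50, and CC50 was taken from multiplexed Cell Titer-Blue.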

[2] = tested on: HCV genotype 1b (Con1) replicon in HUH-7 cells; assay: HCV replicon luciferase reporter assay, genotype 1b; type: cell-based; details: Hepatitis C virus, Huh-7, 72 h, HCV genotype 1b replicon luciferase assay, 3 days incubation, range class, read-out: LE_1b (EC50, range)
Method in brief: as §1

| Structure (SMILES) | EC50 [1] | EC50 [2] |
| --- | --- | --- |
| COc1ccc2c(O[C@@H]3C[C@H]4C(=O)N[C@]5(C(=O)NS(=O)(=O)C6CC6)C[C@H]5/C=C\CC[C@@H](C)C[C@@H](C)[C@H](NC(=O)OC(C)(C)C)C(=O)N4C3)nc(-c3ccc(OC)c(Cl)c3)cc2c1 [Compound 3048, tert-butyl ((2R,6S,7R,9R,13aS,14aR,16aS,Z)-2-((3-(3-chloro-4-methoxyphenyl)-6-methoxyisoquinolin-1-yl)oxy)-14a-((cyclopropylsulfonyl)carbamoyl)-7,9-dimethyl-5,16-dioxo-1,2,3,5,6,7,8,9,10,11,13a,14,14a,15,16,16a-hexadecahydrocyclopropa[e]pyrrolo[1,2-a][1,4]diazacyclopentadecin-6-yl)carbamate] | < 5.46 nM | < 5.46 nM |
| COc1ccc2c(O[C@@H]3C[C@H]4C(=O)N[C@]5(C(=O)NS(=O)(=O)C6CC6)C[C@H]5/C=C\CC[C@H](C)C[C@@H](C)[C@H](NC(=O)OC(C)(C)C)C(=O)N4C3)nc(-c3ccc(OC)c(F)c3)cc2c1 [Compound 3049, tert-butyl ((2R,6S,7R,9S,13aS,14aR,16aS,Z)-14a-((cyclopropylsulfonyl)carbamoyl)-2-((3-(3-fluoro-4-methoxyphenyl)-6-methoxyisoquinolin-1-yl)oxy)-7,9-dimethyl-5,16-dioxo-1,2,3,5,6,7,8,9,10,11,13a,14,14a,15,16,16a-hexadecahydrocyclopropa[e]pyrrolo[1,2-a][1,4]diazacyclopentadecin-6-yl)carbamate] | < 5.46 nM | < 5.46 nM |
| COc1ccc2c(O[C@@H]3C[C@H]4C(=O)N[C@]5(C(=O)NS(=O)(=O)C6CC6)C[C@H]5/C=C\CC[C@@H](C)C[C@@H](C)[C@H](NC(=O)OC(C)(C)C)C(=O)N4C3)nc(-c3ccc(OC)c(F)c3)cc2c1 [Compound 3050, tert-butyl ((2R,6S,7R,9R,13aS,14aR,16aS,Z)-14a-((cyclopropylsulfonyl)carbamoyl)-2-((3-(3-fluoro-4-methoxyphenyl)-6-methoxyisoquinolin-1-yl)oxy)-7,9-dimethyl-5,16-dioxo-1,2,3,5,6,7,8,9,10,11,13a,14,14a,15,16,16a-hexadecahydrocyclopropa[e]pyrrolo[1,2-a][1,4]diazacyclopentadecin-6-yl)carbamate] | < 5.46 nM | < 5.46 nM |
| COc1ccc2c(O[C@@H]3C[C@H]4C(=O)N[C@]5(C(=O)NS(=O)(=O)C6CC6)C[C@H]5/C=C\CC[C@H](C)C[C@@H](C)[C@H](NC(=O)OC(C)(C)C(F)(F)F)C(=O)N4C3)nc(-c3ccc(OC)c(Cl)c3)cc2c1 [Compound 3051, 1,1,1-trifluoro-2-methylpropan-2-yl((2R,6S,7R,9S,13aS,14aR,16aS,Z)-2-((3-(3-chloro-4-methoxyphenyl)-6-methoxyisoquinolin-1-yl)oxy)-14a-((cyclopropylsulfonyl)carbamoyl)-7,9-dimethyl-5,16-dioxo-1,2,3,5,6,7,8,9,10,11,13a,14,14a,15,16,16a-hexadecahydrocyclopropa[e]pyrrolo[1,2-a][1,4]diazacyclopentadecin-6-yl)carbamate] | 4.82 to 103 nM | < 5.46 nM |
| COc1ccc2c(O[C@@H]3C[C@H]4C(=O)N[C@]5(C(=O)NS(=O)(=O)C6CC6)C[C@H]5/C=C\CC[C@@H](C)C[C@@H](C)[C@H](NC(=O)OC(C)(C)C(F)(F)F)C(=O)N4C3)nc(-c3ccc(OC)c(Cl)c3)cc2c1 [Compound 3052, 1,1,1-trifluoro-2-methylpropan-2-yl((2R,6S,7R,9R,13aS,14aR,16aS,Z)-2-((3-(3-chloro-4-methoxyphenyl)-6-methoxyisoquinolin-1-yl)oxy)-14a-((cyclopropylsulfonyl)carbamoyl)-7,9-dimethyl-5,16-dioxo-1,2,3,5,6,7,8,9,10,11,13a,14,14a,15,16,16a-hexadecahydrocyclopropa[e]pyrrolo[1,2-a][1,4]diazacyclopentadecin-6-yl)carbamate] | < 5.46 nM | < 5.46 nM |
